Tested on: diabetic non human primates (NHPs) under a high-calorie diet (HCD)
Assay: Diabetic monkey model;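 further: male obese diabetic cynomolgus monkeys fed a high-fat, high-fructose diet, randomized into 4 groups, dosed with test compound for 8 weeks, then a 4-week washout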
Procedure: The aim of this assay is to determine the effect of a test compound on lipid metabolism and glucose handling in diabetic non human primates (NHPs) under a high-calorie diet (HCD) consisting of high-fat and high-fructose.
Male obese diabetic cynomolgus monkeys were selected based on their body weights, glucose, insulin levels, and blood lipid parameters. The inclusion criteria were the following: age ≤22 years; fasted plasma glucose between 120 and 300 mg/dL; triglycerides >125 mg/dL, and insulin >75 mIU/mL.
The animals are maintained at 20-23° C. and 40-70% humidity on a 12 h light/dark cycle (7 AM-7 PM). Water is provided ad libitum and the animals are fed twice daily with the high-calorie diet (HCD) enriched with seasonal fruits or vegetables.
After the baseline period, animals were randomized into 4 groups according to body weight, as well as their blood glucose and lipid parameters.
The following parameters were measured once per week during the 8 weeks of treatment and also during the 4 weeks of washout: • body weight • food consumption • blood chemistry (fasted blood glucose, plasma triglycerides, plasma total cholesterol, low density lipoproteins (LDL), and high density lipoproteins (HDL))
Oral glucose tolerance was measured in fasted animals before treatment initiation (baseline), at the end of the treatment period (week 8), and after 4 weeks of washout (week 12).

Cc1nn(C(C)C)c(C)c1-c1cnn2ccc(-c3cc(C(=O)O)co3)cc12 [Cpd 18, 5-[3-(1-isopropyl-3,5-dimethyl-pyrazol-4-yl)pyrazolo[1,5-a]pyridin-5-yl]furan-3-carboxylic acid]
HDL change (% change from baseline) (Group 2, week 1, treatment): 14.1% | LDL change (% change from baseline) (Group 2, week 1, treatment): 52.8% | Total cholesterol change (% change from baseline) (Group 2, week 1, treatment): 48.2 % change from baseline | Triglyceride change (% change from baseline) (Group 2, week 1, treatment): −33.3 % change from baseline | HDL change (% change from baseline) (Group 2, week 2, treatment): 8.4% | LDL change (% change from baseline) (Group 2, week 2, treatment): 38.3% | Total cholesterol change (% change from baseline) (Group 2, week 2, treatment): 33.8 % change from baseline | Triglyceride change (% change from baseline) (Group 2, week 2, treatment): −31.2 % change from baseline | HDL change (% change from baseline) (Group 2, week 3, treatment): 6.2% | LDL change (% change from baseline) (Group 2, week 3, treatment): 16.6% | Total cholesterol change (% change from baseline) (Group 2, week 3, treatment): 18.6 % change from baseline | Triglyceride change (% change from baseline) (Group 2, week 3, treatment): −36.7 % change from baseline | HDL change (% change from baseline) (Group 2, week 4, treatment): −4.3% | LDL change (% change from baseline) (Group 2, week 4, treatment): 31.0% | Total cholesterol change (% change from baseline) (Group 2, week 4, treatment): 28.0 % change from baseline | Triglyceride change (% change from baseline) (Group 2, week 4, treatment): −44.2 % change from baseline | HDL change (% change from baseline) (Group 2, week 5, treatment): 4.2% | LDL change (% change from baseline) (Group 2, week 5, treatment): 5.1% | Total cholesterol change (% change from baseline) (Group 2, week 5, treatment): 3.2 % change from baseline | Triglyceride change (% change from baseline) (Group 2, week 5, treatment): −62.6 % change from baseline | HDL change (% change from baseline) (Group 2, week 6, treatment): 11.7% | LDL change (% change from baseline) (Group 2, week 6, treatment): −10.5% | Total cholesterol change (% change from baseline) (Group 2, week 6, treatment): −6.7 % change from baseline | Triglyceride change (% change from baseline) (Group 2, week 6, treatment): −59.6 % change from baseline | HDL change (% change from baseline) (Group 2, week 7, treatment): 13.0% | LDL change (% change from baseline) (Group 2, week 7, treatment): −17.2% | Total cholesterol change (% change from baseline) (Group 2, week 7, treatment): −12.0 % change from baseline | Triglyceride change (% change from baseline) (Group 2, week 7, treatment): −55.9 % change from baseline | HDL change (% change from baseline) (Group 2, week 8, treatment): 12.4% | LDL change (% change from baseline) (Group 2, week 8, treatment): −10.5% | Total cholesterol change (% change from baseline) (Group 2, week 8, treatment): −5.1 % change from baseline | Triglyceride change (% change from baseline) (Group 2, week 8, treatment): −39.3 % change from baseline | HDL change (% change from baseline) (Group 2, week 9, washout): 13.5% | LDL change (% change from baseline) (Group 2, week 9, washout): −1.6% | Total cholesterol change (% change from baseline) (Group 2, week 9, washout): 5.8 % change from baseline | Triglyceride change (% change from baseline) (Group 2, week 9, washout): −33.4 % change from baseline | HDL change (% change from baseline) (Group 2, week 10, washout): 22.7% | LDL change (% change from baseline) (Group 2, week 10, washout): 38.6% | Total cholesterol change (% change from baseline) (Group 2, week 10, washout): 42.4 % change from baseline | Triglyceride change (% change from baseline) (Group 2, week 10, washout): 9.8 % change from baseline | HDL change (% change from baseline) (Group 2, week 11, washout): 21.2% | LDL change (% change from baseline) (Group 2, week 11, washout): 81.5% | Total cholesterol change (% change from baseline) (Group 2, week 11, washout): 83.8 % change from baseline | Triglyceride change (% change from baseline) (Group 2, week 11, washout): 49.7 % change from baseline | HDL change (% change from baseline) (Group 2, week 12, washout): 24.9% | LDL change (% change from baseline) (Group 2, week 12, washout): 118.6% | Total cholesterol change (% change from baseline) (Group 2, week 12, washout): 115.8 % change from baseline | Triglyceride change (% change from baseline) (Group 2, week 12, washout): 32.2 % change from baseline | HDL change (% change from baseline) (Group 3, week 1, treatment): 18.6% | LDL change (% change from baseline) (Group 3, week 1, treatment): 60.5% | Total cholesterol change (% change from baseline) (Group 3, week 1, treatment): 46.1 % change from baseline | Triglyceride change (% change from baseline) (Group 3, week 1, treatment): −20.2 % change from baseline | HDL change (% change from baseline) (Group 3, week 2, treatment): 3.7% | LDL change (% change from baseline) (Group 3, week 2, treatment): 58.3% | Total cholesterol change (% change from baseline) (Group 3, week 2, treatment): 41.5 % change from baseline | Triglyceride change (% change from baseline) (Group 3, week 2, treatment): −56.1 % change from baseline | HDL change (% change from baseline) (Group 3, week 3, treatment): 7.7% | LDL change (% change from baseline) (Group 3, week 3, treatment): 35.1% | Total cholesterol change (% change from baseline) (Group 3, week 3, treatment): 22.3 % change from baseline | Triglyceride change (% change from baseline) (Group 3, week 3, treatment): −41.6 % change from baseline | HDL change (% change from baseline) (Group 3, week 4, treatment): −12.0% | LDL change (% change from baseline) (Group 3, week 4, treatment): −28.7% | Total cholesterol change (% change from baseline) (Group 3, week 4, treatment): −22.3 % change from baseline | Triglyceride change (% change from baseline) (Group 3, week 4, treatment): −44.5 % change from baseline | HDL change (% change from baseline) (Group 3, week 5, treatment): 1.0% | LDL change (% change from baseline) (Group 3, week 5, treatment): −27.5% | Total cholesterol change (% change from baseline) (Group 3, week 5, treatment): −21.0 % change from baseline | Triglyceride change (% change from baseline) (Group 3, week 5, treatment): −44.4 % change from baseline | HDL change (% change from baseline) (Group 3, week 6, treatment): 9.5% | LDL change (% change from baseline) (Group 3, week 6, treatment): −33.2% | Total cholesterol change (% change from baseline) (Group 3, week 6, treatment): −26.5 % change from baseline | Triglyceride change (% change from baseline) (Group 3, week 6, treatment): −46.2 % change from baseline | HDL change (% change from baseline) (Group 3, week 7, treatment): 8.3% | LDL change (% change from baseline) (Group 3, week 7, treatment): −39.4% | Total cholesterol change (% change from baseline) (Group 3, week 7, treatment): −30.5 % change from baseline | Triglyceride change (% change from baseline) (Group 3, week 7, treatment): −35.0 % change from baseline | HDL change (% change from baseline) (Group 3, week 8, treatment): −0.9% | LDL change (% change from baseline) (Group 3, week 8, treatment): −27.9% | Total cholesterol change (% change from baseline) (Group 3, week 8, treatment): −20.4 % change from baseline | Triglyceride change (% change from baseline) (Group 3, week 8, treatment): −37.4 % change from baseline | HDL change (% change from baseline) (Group 3, week 9, washout): 1.5% | LDL change (% change from baseline) (Group 3, week 9, washout): −41.8%
